In patent US11718631B2, “Sulphonamides and compositions thereof for treating conditions associated with NLRP activity” (Novartis AG, priority 2017, dated 2023):
pIC50: −log10 of the molar value. Read-outs that look alike come from different tables or passages of the source.

Target: T1, NLRP3 (Homo sapiens, UniProt Q96P20)
T1 construct: IL-1β Production in PMA-Differentiated THP-1 Cells Stimulated with Gramicidin; host or cells: THP-1 cells, PMA-differentiated
Experiment: IL-1β production in PMA-differentiated THP-1 cells stimulated with gramicidin (hTHP-1 assay)
Type: cell-based
Settings: hTHP-1 assay containing 2% fetal bovine serum, read-out: NLRP3 Antagonist, human THP1 NLRP3, IL-1b, Normalized: GeoMean IC50
Experimental: IL-1β Production in PMA-Differentiated THP-1 Cells Stimulated with Gramicidin.
THP-1 cells were purchased from the American Type Culture Collection and sub-cultured according to instructions from the supplier. […] Prior to the experiment THP-1 were treated with PMA (Phorbol 12-myristate 13-acetate) (20 ng/ml) for 16-18 hours. On the day of the experiment the media was removed and adherent cells were detached with trypsin for 5 minutes. […] A vehicle only control was run concurrently with each experiment. Final DMSO concentration was 0.38%.
THP-1 cells were purchased from the American Type Culture Collection and sub-cultured according to instructions from the supplier. […] Prior to the experiment THP-1 were treated with PMA (Phorbol 12-myristate 13-acetate) (20 ng/ml) for 16-18 hours. Compounds were dissolved in dimethyl sulfoxide (DMSO) to generate a 30 mM stock. On the day of the experiment the media was removed and adherent cells were detached with trypsin for 5 minutes. […] Final DMSO concentration was at 0.37%. Cells were incubated with compounds for 1 hour and then stimulated with gramicidin (5 μM) (Enzo) for 2 hours. Plates were then centrifuged at 340 g for 5 min. Cell free supernatant (40 μL) was collected using a 96-channel PlateMaster (Gilson) and the production of IL-1p was evaluated by HTRF (cisbio).
IL-1p Production in PMA-Differentiated THP-1 Cells Stimulated with Gramicidin.
THP-1 cells were purchased from the American Type Culture Collection and sub-cultured according to instructions from the supplier. […] Prior to the experiment, compounds were dissolved in dimethyl sulfoxide (DMSO) to generate a 30 mM stock. […] DMSO was backfilled in the plate to achieve a final DMSO assay concentration of 0.37%. The plate was then sealed and stored at room temperature until required.
THP-1 cells were treated with PMA (Phorbol 12-myristate 13-acetate) (20 ng/ml) for 16-18 hours. On the day of the experiment the media was removed and adherent cells were detached with trypsin for 5 minutes. […] The plates were incubated for 18 h at 4° C. and read using the preset HTRF program (donor emission at 620 nm, acceptor emission at 668 nm) of the SpectraMax i3x spectrophotometer (Molecular Devices, software SoftMax 6).

[1] = average IC50, given as numeric bound

T1 sequence (Q96P20 whole entry): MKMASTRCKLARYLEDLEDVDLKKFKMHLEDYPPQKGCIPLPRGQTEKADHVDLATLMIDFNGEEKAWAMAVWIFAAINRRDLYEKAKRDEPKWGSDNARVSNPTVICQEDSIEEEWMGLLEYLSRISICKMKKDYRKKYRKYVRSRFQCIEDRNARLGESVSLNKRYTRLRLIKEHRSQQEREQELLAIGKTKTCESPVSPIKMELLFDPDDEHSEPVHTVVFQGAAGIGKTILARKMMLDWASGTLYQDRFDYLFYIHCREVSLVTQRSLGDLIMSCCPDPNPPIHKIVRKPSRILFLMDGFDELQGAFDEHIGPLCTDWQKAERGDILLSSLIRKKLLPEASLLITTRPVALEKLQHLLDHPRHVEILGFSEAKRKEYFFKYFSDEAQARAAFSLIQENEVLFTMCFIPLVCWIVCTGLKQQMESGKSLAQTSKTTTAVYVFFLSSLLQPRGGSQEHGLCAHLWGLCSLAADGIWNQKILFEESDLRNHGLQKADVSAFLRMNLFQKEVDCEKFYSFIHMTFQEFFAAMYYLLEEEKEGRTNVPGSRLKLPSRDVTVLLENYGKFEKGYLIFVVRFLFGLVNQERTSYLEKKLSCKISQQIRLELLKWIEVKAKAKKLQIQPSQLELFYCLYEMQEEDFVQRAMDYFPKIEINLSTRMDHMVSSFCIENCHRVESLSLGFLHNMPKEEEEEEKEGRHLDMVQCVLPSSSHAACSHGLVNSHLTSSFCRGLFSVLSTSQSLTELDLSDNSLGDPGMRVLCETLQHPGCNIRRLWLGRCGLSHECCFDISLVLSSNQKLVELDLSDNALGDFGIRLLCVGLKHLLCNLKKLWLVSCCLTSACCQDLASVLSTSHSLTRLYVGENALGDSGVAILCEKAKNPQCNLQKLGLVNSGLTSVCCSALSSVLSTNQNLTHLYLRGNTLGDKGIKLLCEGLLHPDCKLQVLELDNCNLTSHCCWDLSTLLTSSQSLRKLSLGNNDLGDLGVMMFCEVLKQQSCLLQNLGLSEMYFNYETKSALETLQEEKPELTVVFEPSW

| pIC50 (average IC50, class symbols) | pIC50 [1] | Compound |
| --- | --- | --- |
| 6.00 to 6.70 |  | CC(C)c1cc(-c2ccc(Cl)c(Cl)c2)cc(C(C)C)c1CC(=O)NS(=O)(=O)c1ccc(CN(C)C)cc1 [Compound 119, 2-[4-(3,4-dichlorophenyl)-2,6-di(propan-2-yl)phenyl]-N-[4-[(dimethylamino)methyl]phenyl] sulfonylacetamide] |
| 5.30 to 6.00 |  | C#Cc1cc(C(C)C)c(CC(=O)NS(=O)(=O)c2ccc(C(C)N(C)C)cc2)c(C(C)C)c1 (centres unmarked) [Compound 379] |
| 5.30 to 6.00 |  | CC(C)c1cc(C2CCc3ccccc3C2)cc(C(C)C)c1CC(=O)NS(=O)(=O)c1ccc(CN(C)C)cc1 (centres unmarked) [Compound 314, 2-[2,6-bis(propan-2-yl)-4-(1,2,3,4-tetrahydronaphthalen-2-yl)phenyl]-N-{4-[(dimethylamino)methyl]benzene-sulfonyl}acetamide] |
| 5.30 to 6.00 |  | CC(C)c1cc(-c2ccc(Cl)c(F)c2)cc(C(C)C)c1CC(=O)NS(=O)(=O)c1ccc(CN(C)C)cc1 [Compound 120, 2-[4-(4-chloro-3-fluorophenyl)-2,6-di(propan-2-yl)phenyl]-N-[4-[(dimethylamino)methyl]phenyl] sulfonylacetamide] |
| 6.00 to 6.70 |  | Cc1ccc(-c2cc(C(C)C)c(CC(=O)NS(=O)(=O)c3ccc(CN(C)C)cc3)c(C(C)C)c2)cc1C [Compound 118, N-[4-[(dimethylamino)methyl]phenyl] sulfonyl-2-[4-(3,4-dimethylphenyl)-2,6-di(propan-2-yl)phenyl]acetamide] |
|  | < 4.52 | CC(C)c1cc(C2CCOC2)cc(C(C)C)c1CC(=O)NS(=O)(=O)c1ccc(CN(C)C)cc1 (centres unmarked) [Compound 315, N-{4-[(dimethylamino)methyl]benzene-sulfonyl}-2-[4-(oxolan-3-yl)-2,6-bis(propan-2-yl)phenyl]acetamide] |
| 6.70 to 7.40 |  | CC(C)c1cc(C#CC2CCCC2)cc(C(C)C)c1CC(=O)NS(=O)(=O)c1ccc(CN(C)C)cc1 [Compound 370, 2-[4-(2-cyclopentylethynyl)-2,6-bis(propan-2-yl)phenyl]-N-{4-[(dimethylamino)methyl]benzene-sulfonyl}acetamide] |
| 6.00 to 6.70 |  | CC(C)c1cc(-c2ccc(F)c(Cl)c2)cc(C(C)C)c1CC(=O)NS(=O)(=O)c1ccc(CN(C)C)cc1 [Compound 112, 2-[4-(3-chloro-4-fluorophenyl)-2,6-di(propan-2-yl)phenyl]-N-[4-[(dimethylamino)methyl]phenyl] sulfonylacetamide] |
| 5.30 to 6.00 |  | CC(C)c1cc(C2Cc3ccccc3C2)cc(C(C)C)c1CC(=O)NS(=O)(=O)c1ccc(CN(C)C)cc1 [Compound 323, 2-[4-(2,3-dihydro-1H-inden-2-yl)-2,6-bis(propan-2-yl)phenyl]-N-{4-[(dimethylamino)methyl]benzene-sulfonyl}acetamide] |
|  | < 4.52 | CC(C)c1cc(C(O)c2ccccc2)cc(C(C)C)c1CC(=O)NS(=O)(=O)c1ccc(CN(C)C)cc1 (centres unmarked) [Compound 372, N-{4-[(dimethylamino)methyl]benzenesulfonyl}-2-(4-[hydroxy(phenyl)methyl]-2,6-bis(propan-2-yl)phenyl)acetamide] |
| 6.00 to 6.70 |  | Cc1ccc(-c2cc(C(C)C)c(CC(=O)NS(=O)(=O)c3ccc(CN(C)C)cc3)c(C(C)C)c2)cc1Cl [Compound 117, 2-[4-(3-chloro-4-methylphenyl)-2,6-di(propan-2-yl)phenyl]-N-[4-[(dimethylamino)methyl]phenyl] sulfonylacetamide] |
| 5.30 to 6.00 |  | C=C(C)c1cc(C(C)C)c(CC(=O)NS(=O)(=O)c2ccc(CN(C)C)cc2)c(C(C)C)c1 [Compound 147] |
| 5.30 to 6.00 |  | COc1ccccc1-c1cc(C(C)C)c(CC(=O)NS(=O)(=O)c2ccc(CN(C)C)cc2)c(C(C)C)c1 [Compound 121, N-[4-[(dimethylamino)methyl]phenyl] sulfonyl-2-[4-(2-methoxyphenyl)-2,6-di(propan-2-yl)phenyl] acetamide] |
| 6.00 to 6.70 |  | CC(C)c1cc(-c2ccc3c(c2)OC(F)(F)O3)cc(C(C)C)c1CC(=O)NS(=O)(=O)c1ccc(CN(C)C)cc1 [Compound 113, 2-[4-(2,2-difluoro-1,3-benzodioxol-5-yl)-2,6-di(propan-2-yl)phenyl]-N-[4-[(dimethylamino)methyl]phenyl] sulfonylacetamide] |
| 6.00 to 6.70 |  | CC(C)c1cc(-c2cccc(Cl)c2)cc(C(C)C)c1CC(=O)NS(=O)(=O)c1ccc(CN(C)C)cc1 [Compound 108, 2-[4-(3-chlorophenyl)-2,6-di(propan-2-yl)phenyl]-N-[4-[(dimethylamino)methyl]phenyl] sulfonylacetamide] |
| 6.70 to 7.40 |  | CC(C)c1cc(C#CC2CCCCC2)cc(C(C)C)c1CC(=O)NS(=O)(=O)c1ccc(CN(C)C)cc1 [Compound 324, 2-[4-(2-cyclohexylethynyl)-2,6-bis(propan-2-yl)phenyl]-N-{4-[(dimethylamino)methyl]benzene-sulfonyl}acetamide] |
| 4.52 to 5.30 |  | CC(C)c1cc(-c2ccccc2S(C)(=O)=O)cc(C(C)C)c1CC(=O)NS(=O)(=O)c1ccc(CN(C)C)cc1 [Compound 125, N-[4-[(dimethylamino)methyl]phenyl] sulfonyl-2-[4-(2-methylsulfonyl-phenyl)-2,6-di(propan-2-yl)phenyl]acetamide] |
| 4.52 to 5.30 |  | CC(C)c1cc(-c2ccccc2OCc2ccccc2)cc(C(C)C)c1CC(=O)NS(=O)(=O)c1ccc(CN(C)C)cc1 [Compound 102, N-[4-[(dimethylamino)methyl]phenyl] sulfonyl-2-[4-(2-phenylmethoxy-phenyl)-2,6-di(propan-2-yl)phenyl]acetamide] |
| 5.30 to 6.00 |  | CC(C)c1cc(C2CCCc3ccccc32)cc(C(C)C)c1CC(=O)NS(=O)(=O)c1ccc(CN(C)C)cc1 (centres unmarked) [Compound 321, 2-[2,6-bis(propan-2-yl)-4-(1,2,3,4-tetrahydronaphthalen-1-yl)phenyl]-N-{4-[(dimethylamino)methyl]benzene-sulfonyl}acetamide] |
| 5.30 to 6.00 |  | CC(C)c1cc(Br)cc(C(C)C)c1CC(=O)NS(=O)(=O)c1ccc(CN(C)C)cc1 [Compound 148] |
| 4.52 to 5.30 |  | CC(C)c1cc(C2CCCC2)cc(C(C)C)c1CC(=O)NS(=O)(=O)c1ccc(CN(C)C)cc1 [Compound 355, 2-[4-cyclopentyl-2,6-bis(propan-2-yl)phenyl]-N-{4-[(dimethylamino)methyl]benzene-sulfonyl}acetamide] |
| 6.00 to 6.70 |  | Cc1cc(-c2cc(C(C)C)c(CC(=O)NS(=O)(=O)c3ccc(CN(C)C)cc3)c(C(C)C)c2)ccc1F [Compound 101] |
|  | < 4.52 | CC(C)c1cc(-c2cnn(C)c2)cc(C(C)C)c1CC(=O)NS(=O)(=O)c1ccc(CN(C)C)cc1 [Compound 106, N-[4-[(dimethylamino)methyl]phenyl] sulfonyl-2-[4-(1-methylpyrazol-4-yl)-2,6-di(propan-2-yl)phenyl] acetamide] |
| 5.30 to 6.00 |  | CC(C)c1cc(Cl)cc(C(C)C)c1CC(=O)NS(=O)(=O)c1ccc(CN(C)C)cc1 [Compound 149] |
| 4.52 to 5.30 |  | CC(C)c1cc(CC2CCCCC2)cc(C(C)C)c1CC(=O)NS(=O)(=O)c1ccc(CN(C)C)cc1 [Compound 378, 2-[4-(cyclohexylmethyl)-2,6-bis(propan-2-yl)phenyl]-N-{4-[(dimethylamino)methyl]benzenesulfonyl}acetamide] |
| 6.00 to 6.70 |  | Cc1cc(-c2cc(C(C)C)c(CC(=O)NS(=O)(=O)c3ccc(CN(C)C)cc3)c(C(C)C)c2)ccc1Cl [Compound 146] |
| 6.00 to 6.70 |  | CC(C)c1cc(C2CCc3ccccc32)cc(C(C)C)c1CC(=O)NS(=O)(=O)c1ccc(CN(C)C)cc1 (centres unmarked) [Compound 322, 2-[4-(2,3-dihydro-1H-inden-1-yl)-2,6-bis(propan-2-yl)phenyl]-N-{4-[(dimethylamino)methyl]benzene-sulfonyl}acetamide] |
|  | < 4.52 | CC(C)c1cc(C2=CCCN(C(=O)OC(C)(C)C)C2)cc(C(C)C)c1CC(=O)NS(=O)(=O)c1ccc(CN(C)C)cc1 [Compound 122, tert-butyl 5-[4-[2-[[4-[(dimethylamino)methyl]phenyl]sulfonylamino]-2-oxoethyl]-3,5-di(propan-2-yl)phenyl]-3,6-dihydro-2H-pyridine-1-carboxylate] |
| 4.52 to 5.30 |  | CC(C)c1cc(-c2ccc3c(ccn3C(=O)OC(C)(C)C)c2)cc(C(C)C)c1CC(=O)NS(=O)(=O)c1ccc(CN(C)C)cc1 [Compound 115, tert-butyl 5-[4-[2-[[4-[(dimethylamino)methyl]phenyl]sulfonylamino]-2-oxoethyl]-3,5-di(propan-2-yl)phenyl]indole-1-carboxylate] |
